Results on 10 molecules are retold here after ChEMBL document CHEMBL1938289, “Facile synthesis of tetracyclic azepine and oxazocine derivatives and their potential as MAPKAP-K2 (MK2) inhibitors” (Bioorg Med Chem Lett, 2012).

In brackets after ≈: the same amount, converted by molar mass. Activity calls are given as the source filed them. The rule behind the calls is not given here. Some results are limits rather than exact numbers.

The target in data set [1] is T1, MAP kinase-activated protein kinase 2 (Homo sapiens, UniProt P49137). Description: Inhibition of MK2 using TAMRA-labeled peptide as substrate pre-incubated for 30 mins prior substrate addition measured after 30 mins incubation in dark using fluorescence polarization assay.
Target sequence in this assay (P49137 whole entry): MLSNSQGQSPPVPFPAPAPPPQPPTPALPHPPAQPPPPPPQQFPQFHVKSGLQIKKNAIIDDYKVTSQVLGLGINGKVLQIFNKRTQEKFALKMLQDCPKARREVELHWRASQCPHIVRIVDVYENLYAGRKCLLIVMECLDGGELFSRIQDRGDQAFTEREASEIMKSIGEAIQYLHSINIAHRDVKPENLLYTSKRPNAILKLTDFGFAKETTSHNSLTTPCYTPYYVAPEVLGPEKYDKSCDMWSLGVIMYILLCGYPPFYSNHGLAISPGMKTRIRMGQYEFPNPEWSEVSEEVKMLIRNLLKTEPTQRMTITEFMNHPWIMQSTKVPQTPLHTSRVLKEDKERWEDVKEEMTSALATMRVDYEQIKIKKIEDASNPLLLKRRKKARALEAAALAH
Data set [2] is described as follows: Kinetic solubility of the compound at pH 7.4. Particulars: buffer.
The target in data set [3] is T1, MAP kinase-activated protein kinase 2. As to the kind of experiment: Noncompetitive inhibition of MK2 using TAMRA-labeled peptide as substrate.
Target sequence in this assay (P49137 whole entry, looked up): as the sequence (P49137 whole entry) above
Data set [4] has the same target. Description: Inhibition of MK2-mediated HSP27 phosphorylation at Ser78 in LPS-stimulated human THP-1 cells pre-incubated for 60 mins before LPS treatment measured after 60 mins. The data set is classed as cell-based.
Target sequence in this assay (P49137 whole entry): as above

In turn, `Cc1nnc2n1-c1ccc(N3CCNCC3)cc1Cc1cc(-c3ccc(Cl)cc3)oc1-2` displayed an IC50 in data set [1] of 880 nM. The kinetic solubility in data set [2] came to 10 µM (≈ 4.32 µg/mL).
With `Clc1ccc(-c2cc3c(o2)-c2nccn2-c2ccc(N4CCNCC4)cc2OC3)cc1`, the IC50 in data set [1] came out at 18 nM. Also, in data set [2], the kinetic solubility stood at 38 µM (≈ 16.5 µg/mL). In addition, in data set [3], the inhibition result was “Active”.
In data set [1], `Fc1ccc(-c2cc3c(o2)-c2nncn2-c2ccc(N4CCNCC4)cc2C3)cc1` came in with an IC50 of 15 nM. The solubility (kinetic) in data set [2] was 33 µM (≈ 13.2 µg/mL).
In data set [1], `N#Cc1ccc(-c2cc3c(o2)-c2nccn2-c2ccc(N4CCNCC4)cc2C3)cc1` registered an IC50 of 2.9 nM. In data set [4], this molecule registered an EC50 of 260 nM. The molecule also displayed a solubility (kinetic) in data set [2] of under 16 µM.
For `Cc1cnc2n1-c1ccc(N3CCNCC3)cc1Cc1cc(-c3ccc(Cl)cc3)oc1-2`, 9.2 nM corresponded to half-maximal inhibition in data set [1] (IC50). Also, the EC50 in data set [4] is 2500 nM.
On to `Clc1ccc(-c2cc3c(o2)-c2nccn2-c2ccc(N4CCNCC4)cc2C3)cc1`, for which the IC50 in data set [1] turned out to be 7 nM. In addition, the EC50 in data set [4] is 1500 nM. The molecule further displayed a kinetic solubility in data set [2] of 20 µM (≈ 8.34 µg/mL).
For `Clc1ccc(-c2cc3c(o2)-c2nncn2-c2ccc(N4CCNCC4)cc2C3)cc1`, in that order: 9.3 nM, 2100 nM and 10 µM (≈ 4.18 µg/mL).
Consider `O=C(c1ccc(-c2ccc(Cl)cc2)o1)N(Cc1ccccn1)c1ccc(N2CCNCC2)cc1`, for which, in data set [2], the kinetic solubility is over 200 µM.
`N#Cc1ccc(-c2cc3c(o2)-c2nncn2-c2ccc(N4CCNCC4)cc2C3)cc1` returned an IC50 in data set [1] of 3.8 nM. This molecule showed an EC50 in data set [4] of 260 nM. The same molecule showed a solubility (kinetic) in data set [2] of 16 µM (≈ 6.54 µg/mL). For the same molecule, the inhibition result in data set [3] is “Active”.
Turning to `O=C1Nc2ccc(N3CCNCC3)cc2OCc2cc(-c3ccc(Cl)cc3)oc21`, the IC50 in data set [1] was determined as 110 nM.
